The source made the active and inactive calls.
How the values were obtained:
[1] = target: Transitional endoplasmic reticulum ATPase (Homo sapiens, UniProt P55072, C522A); experiment: C522A mutant p97 ATPase inhibitors, dose response, counter-screen for p97 inhibitor project, biochemical, luminescence (AID 1544)
[2] = target: Peroxisome proliferator-activated receptor gamma/Nuclear receptor coactivator 2 (Homo sapiens, UniProt P37231); format: functional;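 further: agonist potency for raising coactivator recruitment to the receptor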
[3] = target: Peroxisome proliferator-activated receptor gamma/Nuclear receptor coactivator 3 (Homo sapiens, UniProt P37231); format: functional;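 further: agonist potency for raising coactivator recruitment to the receptor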
[4] = target: Peroxisome proliferator-activated receptor gamma/Nuclear receptor coactivator 1 (Homo sapiens, UniProt P37231); format: functional;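 further: agonist potency as compounds enhance coactivator SRC-1 recruitment to PPARgamma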
Chain of Peroxisome proliferator-activated receptor gamma/Nuclear receptor coactivator 1 (P37231 whole entry): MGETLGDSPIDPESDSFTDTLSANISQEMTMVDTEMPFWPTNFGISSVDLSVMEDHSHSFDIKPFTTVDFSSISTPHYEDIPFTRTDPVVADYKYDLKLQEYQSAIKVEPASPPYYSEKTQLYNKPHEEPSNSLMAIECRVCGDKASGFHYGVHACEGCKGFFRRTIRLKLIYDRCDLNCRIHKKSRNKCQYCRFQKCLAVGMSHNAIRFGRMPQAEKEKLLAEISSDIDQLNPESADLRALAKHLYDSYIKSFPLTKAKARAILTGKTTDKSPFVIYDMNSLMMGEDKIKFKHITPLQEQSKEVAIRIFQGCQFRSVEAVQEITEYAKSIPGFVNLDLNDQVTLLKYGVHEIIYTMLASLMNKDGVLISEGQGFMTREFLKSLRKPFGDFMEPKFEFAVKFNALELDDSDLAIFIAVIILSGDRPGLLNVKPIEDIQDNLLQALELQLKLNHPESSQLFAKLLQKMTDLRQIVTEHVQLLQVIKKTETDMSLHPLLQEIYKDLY
Chain of Peroxisome proliferator-activated receptor gamma/Nuclear receptor coactivator 1 (Q15788 whole entry, further chain): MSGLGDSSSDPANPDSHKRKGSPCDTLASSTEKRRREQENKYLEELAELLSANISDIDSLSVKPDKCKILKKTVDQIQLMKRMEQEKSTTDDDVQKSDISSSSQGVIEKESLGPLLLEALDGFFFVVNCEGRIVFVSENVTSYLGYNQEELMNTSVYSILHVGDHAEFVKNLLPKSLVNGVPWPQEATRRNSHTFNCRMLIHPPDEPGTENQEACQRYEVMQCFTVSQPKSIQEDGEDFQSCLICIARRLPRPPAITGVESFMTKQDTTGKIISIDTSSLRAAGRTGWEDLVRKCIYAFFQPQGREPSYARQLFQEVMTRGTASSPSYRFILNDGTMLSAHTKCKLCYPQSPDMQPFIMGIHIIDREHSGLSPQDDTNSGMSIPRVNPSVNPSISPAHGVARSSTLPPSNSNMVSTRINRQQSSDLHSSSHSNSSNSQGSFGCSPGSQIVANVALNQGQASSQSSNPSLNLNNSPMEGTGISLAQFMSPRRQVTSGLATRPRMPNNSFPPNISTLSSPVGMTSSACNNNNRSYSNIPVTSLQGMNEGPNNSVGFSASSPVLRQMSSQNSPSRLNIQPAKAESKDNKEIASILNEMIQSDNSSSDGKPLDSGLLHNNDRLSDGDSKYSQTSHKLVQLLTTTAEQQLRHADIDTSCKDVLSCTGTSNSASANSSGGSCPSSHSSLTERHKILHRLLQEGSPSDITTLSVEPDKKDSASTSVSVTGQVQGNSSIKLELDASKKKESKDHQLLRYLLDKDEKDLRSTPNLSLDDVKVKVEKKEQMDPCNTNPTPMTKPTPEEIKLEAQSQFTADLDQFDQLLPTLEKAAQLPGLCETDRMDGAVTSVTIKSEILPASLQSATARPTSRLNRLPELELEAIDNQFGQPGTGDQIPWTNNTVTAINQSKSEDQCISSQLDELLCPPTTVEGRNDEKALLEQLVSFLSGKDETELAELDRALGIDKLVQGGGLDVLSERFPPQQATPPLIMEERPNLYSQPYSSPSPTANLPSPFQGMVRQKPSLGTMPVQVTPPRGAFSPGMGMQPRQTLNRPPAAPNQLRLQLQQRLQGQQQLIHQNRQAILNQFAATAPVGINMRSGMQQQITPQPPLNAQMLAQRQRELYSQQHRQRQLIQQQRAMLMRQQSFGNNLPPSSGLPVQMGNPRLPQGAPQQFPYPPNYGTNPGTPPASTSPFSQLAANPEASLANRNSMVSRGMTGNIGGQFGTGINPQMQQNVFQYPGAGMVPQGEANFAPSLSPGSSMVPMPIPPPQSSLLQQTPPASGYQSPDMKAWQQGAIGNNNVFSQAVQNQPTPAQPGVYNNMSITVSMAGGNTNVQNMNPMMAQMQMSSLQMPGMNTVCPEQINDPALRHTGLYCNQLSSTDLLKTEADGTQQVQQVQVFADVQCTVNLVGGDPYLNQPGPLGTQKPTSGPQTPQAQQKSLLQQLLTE

[5] = target: Transitional endoplasmic reticulum ATPase (Homo sapiens, UniProt P55072); experiment: p97 ATPase inhibitors, dose response, biochemical (AID 1534)
Chain of Transitional endoplasmic reticulum ATPase (Homo sapiens, UniProt P55072) (P55072 whole entry, the tested form may be a part): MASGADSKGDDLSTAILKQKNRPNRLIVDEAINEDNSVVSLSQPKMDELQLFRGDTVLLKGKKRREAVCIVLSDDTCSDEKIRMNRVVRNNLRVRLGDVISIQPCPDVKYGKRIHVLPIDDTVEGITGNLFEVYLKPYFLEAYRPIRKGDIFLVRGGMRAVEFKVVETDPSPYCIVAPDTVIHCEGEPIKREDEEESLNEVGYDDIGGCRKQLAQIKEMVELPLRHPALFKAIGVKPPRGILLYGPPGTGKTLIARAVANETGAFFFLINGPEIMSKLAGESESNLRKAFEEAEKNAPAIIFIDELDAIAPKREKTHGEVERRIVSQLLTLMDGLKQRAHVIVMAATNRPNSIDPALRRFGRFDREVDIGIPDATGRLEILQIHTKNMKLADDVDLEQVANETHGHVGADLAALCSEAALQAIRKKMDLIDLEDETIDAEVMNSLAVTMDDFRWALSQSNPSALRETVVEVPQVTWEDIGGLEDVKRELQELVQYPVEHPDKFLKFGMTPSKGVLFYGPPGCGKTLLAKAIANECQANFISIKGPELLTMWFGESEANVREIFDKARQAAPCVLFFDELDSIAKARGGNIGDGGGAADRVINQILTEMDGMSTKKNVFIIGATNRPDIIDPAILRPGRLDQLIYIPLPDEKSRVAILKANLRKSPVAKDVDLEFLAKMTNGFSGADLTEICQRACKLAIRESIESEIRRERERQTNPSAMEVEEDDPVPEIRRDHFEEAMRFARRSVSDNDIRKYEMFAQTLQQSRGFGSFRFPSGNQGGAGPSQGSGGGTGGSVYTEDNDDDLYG

Estrogen receptor = target: T1, Estrogen receptor (Homo sapiens, UniProt P03372); experiment: potentiators of ERα–SRC-1 coactivator binding, dose response, biochemical, TR-FRET, ERα LBD (AID 737)
T1 sequence (P03372 whole entry): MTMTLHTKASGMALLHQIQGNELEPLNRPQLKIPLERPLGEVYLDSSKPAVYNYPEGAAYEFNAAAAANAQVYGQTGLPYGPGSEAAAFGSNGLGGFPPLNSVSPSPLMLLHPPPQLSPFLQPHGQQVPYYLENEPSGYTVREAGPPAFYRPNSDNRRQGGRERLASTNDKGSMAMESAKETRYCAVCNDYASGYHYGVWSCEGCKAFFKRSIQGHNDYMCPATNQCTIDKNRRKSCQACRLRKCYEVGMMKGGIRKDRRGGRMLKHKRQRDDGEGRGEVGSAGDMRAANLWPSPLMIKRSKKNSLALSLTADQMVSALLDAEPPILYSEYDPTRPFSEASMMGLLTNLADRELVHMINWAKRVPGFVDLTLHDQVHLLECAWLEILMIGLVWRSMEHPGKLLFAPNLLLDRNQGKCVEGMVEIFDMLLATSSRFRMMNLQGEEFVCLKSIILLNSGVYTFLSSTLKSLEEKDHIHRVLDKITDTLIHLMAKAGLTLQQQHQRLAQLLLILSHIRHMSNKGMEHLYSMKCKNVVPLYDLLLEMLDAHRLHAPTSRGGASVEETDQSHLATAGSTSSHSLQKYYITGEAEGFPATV

[6] = target: Potassium voltage-gated channel subfamily KQT member 2 (Rattus norvegicus, UniProt O88943); experiment: retigabine-insensitive KCNQ2 potentiators, concentration-response, dose response, cell-based, retigabine-insensitive compounds (AID 2654); format: functional
[7] = target: Neuropeptide Y receptor type 1 (Homo sapiens, UniProt P25929); format: functional;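 further: HEK293 cells with a CNG channel challenged with NPY then isoproterenol; potency as antagonist that reverses NPY suppression of cAMP signal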
Chain of Neuropeptide Y receptor type 1 (P25929 whole entry): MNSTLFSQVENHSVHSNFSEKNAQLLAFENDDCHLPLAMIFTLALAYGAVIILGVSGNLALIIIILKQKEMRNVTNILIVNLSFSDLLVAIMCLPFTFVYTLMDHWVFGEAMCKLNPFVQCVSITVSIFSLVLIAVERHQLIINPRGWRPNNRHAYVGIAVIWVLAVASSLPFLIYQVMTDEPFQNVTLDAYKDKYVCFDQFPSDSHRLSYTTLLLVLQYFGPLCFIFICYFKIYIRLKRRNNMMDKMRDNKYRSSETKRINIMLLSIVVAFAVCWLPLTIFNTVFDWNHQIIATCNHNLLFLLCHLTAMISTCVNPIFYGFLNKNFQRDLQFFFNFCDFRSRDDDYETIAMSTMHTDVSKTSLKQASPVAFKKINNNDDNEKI

[8] = target: Neuropeptide Y receptor type 2 (Homo sapiens, UniProt P49146); format: functional, cell-based;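 further: HEK293 cells expressing the receptor and a CNG channel; stimulus was NPY near EC95 followed by isoproterenol to raise cAMP; antagonist potency measured as restoring cAMP signal that NPY suppresses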
[9] = target: T2, Carboxy-terminal domain RNA polymerase II polypeptide A small phosphatase 1 (Homo sapiens, UniProt Q9GZU7); experiment: inhibitors of CTDSP1, concentration-response testing, biochemical assay, absorbance-based, actives from ultra-high-throughput screening (AID 540297); format: functional
T2 sequence (Q9GZU7 whole entry): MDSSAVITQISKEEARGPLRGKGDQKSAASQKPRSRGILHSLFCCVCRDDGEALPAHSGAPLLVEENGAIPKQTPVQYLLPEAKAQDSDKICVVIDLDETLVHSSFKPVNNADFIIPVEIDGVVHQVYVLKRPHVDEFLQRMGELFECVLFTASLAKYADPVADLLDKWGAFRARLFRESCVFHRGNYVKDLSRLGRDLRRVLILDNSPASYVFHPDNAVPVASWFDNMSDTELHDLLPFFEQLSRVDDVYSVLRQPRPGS

Caspase-6 = target: T3, Caspase-6 (Homo sapiens, UniProt P55212); experiment: human caspase-6 inhibitors, dose response, biochemical, VEID-R110 fluorescence, cherry-pick (AID 720632)
T3 sequence (P55212 whole entry): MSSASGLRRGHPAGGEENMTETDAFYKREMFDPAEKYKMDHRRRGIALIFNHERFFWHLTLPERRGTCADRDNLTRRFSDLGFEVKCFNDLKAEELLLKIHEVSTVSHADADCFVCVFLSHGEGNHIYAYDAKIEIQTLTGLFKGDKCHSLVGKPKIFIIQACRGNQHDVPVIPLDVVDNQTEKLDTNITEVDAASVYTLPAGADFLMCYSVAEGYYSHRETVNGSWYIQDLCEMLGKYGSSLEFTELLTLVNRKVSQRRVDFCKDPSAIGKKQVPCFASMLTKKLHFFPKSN

[10] = target: Induced myeloid leukemia cell differentiation protein Mcl-1 (Homo sapiens, UniProt Q07820); experiment: MCL1-BIM BH3 interaction inhibitors, dose response, biochemical, fluorescence polarization, BIM-BH3 peptide, 1536-well (AID 2217)
Chain of Induced myeloid leukemia cell differentiation protein Mcl-1 (Q07820 whole entry): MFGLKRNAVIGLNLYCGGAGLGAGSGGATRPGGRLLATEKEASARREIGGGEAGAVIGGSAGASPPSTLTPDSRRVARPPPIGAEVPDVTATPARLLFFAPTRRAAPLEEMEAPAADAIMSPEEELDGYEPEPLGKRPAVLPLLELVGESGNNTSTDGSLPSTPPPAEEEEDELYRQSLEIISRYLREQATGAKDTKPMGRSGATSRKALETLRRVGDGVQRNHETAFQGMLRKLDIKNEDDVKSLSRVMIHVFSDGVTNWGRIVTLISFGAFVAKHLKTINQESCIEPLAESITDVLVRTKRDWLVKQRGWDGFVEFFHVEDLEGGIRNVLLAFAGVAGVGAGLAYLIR

Bcl-2-like protein 1 = Bcl-2-like protein 1 (Homo sapiens, UniProt Q07817); experiment: BCL-XL inhibitors, dose response, selectivity assay for MCL1 inhibitor project, biochemical, fluorescence polarization, 1536-well (AID 2218)
Chain of Bcl-2-like protein 1 (Q07817 whole entry): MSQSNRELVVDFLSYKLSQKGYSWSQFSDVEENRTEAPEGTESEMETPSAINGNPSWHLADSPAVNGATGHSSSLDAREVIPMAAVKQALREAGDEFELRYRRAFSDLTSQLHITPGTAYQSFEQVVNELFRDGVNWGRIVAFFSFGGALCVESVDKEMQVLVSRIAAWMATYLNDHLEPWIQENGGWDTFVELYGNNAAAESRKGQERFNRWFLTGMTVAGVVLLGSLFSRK

[11] = target: T4, E3 ubiquitin-protein ligase XIAP (Homo sapiens, UniProt P98170); experiment: XIAP antagonists, biochemical, IAP family, fluorescence polarization (AID 1018); format: functional
T4 sequence (P98170 whole entry): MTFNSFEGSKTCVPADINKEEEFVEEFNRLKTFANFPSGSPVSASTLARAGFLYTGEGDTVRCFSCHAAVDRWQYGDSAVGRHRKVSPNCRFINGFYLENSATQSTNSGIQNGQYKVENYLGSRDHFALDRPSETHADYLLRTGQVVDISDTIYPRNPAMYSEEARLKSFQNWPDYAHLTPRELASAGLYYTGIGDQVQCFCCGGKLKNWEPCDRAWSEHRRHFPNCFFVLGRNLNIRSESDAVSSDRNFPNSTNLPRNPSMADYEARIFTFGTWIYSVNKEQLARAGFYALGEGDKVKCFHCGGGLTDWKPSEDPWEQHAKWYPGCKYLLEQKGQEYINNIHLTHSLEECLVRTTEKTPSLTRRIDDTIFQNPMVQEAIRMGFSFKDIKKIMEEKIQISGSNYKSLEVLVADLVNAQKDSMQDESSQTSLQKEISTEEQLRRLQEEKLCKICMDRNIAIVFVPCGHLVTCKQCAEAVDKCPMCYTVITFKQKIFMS

[12] = target: T4, E3 ubiquitin-protein ligase XIAP; experiment: Counter Screen using XIAP-Bir3 for Chemical Antagonists of Bir1/2 domains of IAP-family anti-apoptotic proteins. [Related pubchem assays (depositor defined):AID1018, AID1449, AID1514, AID1638, AID1749, AID1750, AID488957, AID488963]
[13] = target: T5, Mannose-6-phosphate isomerase (Homo sapiens, UniProt P34949); experiment: inhibitors of human PMI, primary screen, biochemical, fluorescence intensity, coupled assay (AID 1209)
T5 sequence (P34949 whole entry): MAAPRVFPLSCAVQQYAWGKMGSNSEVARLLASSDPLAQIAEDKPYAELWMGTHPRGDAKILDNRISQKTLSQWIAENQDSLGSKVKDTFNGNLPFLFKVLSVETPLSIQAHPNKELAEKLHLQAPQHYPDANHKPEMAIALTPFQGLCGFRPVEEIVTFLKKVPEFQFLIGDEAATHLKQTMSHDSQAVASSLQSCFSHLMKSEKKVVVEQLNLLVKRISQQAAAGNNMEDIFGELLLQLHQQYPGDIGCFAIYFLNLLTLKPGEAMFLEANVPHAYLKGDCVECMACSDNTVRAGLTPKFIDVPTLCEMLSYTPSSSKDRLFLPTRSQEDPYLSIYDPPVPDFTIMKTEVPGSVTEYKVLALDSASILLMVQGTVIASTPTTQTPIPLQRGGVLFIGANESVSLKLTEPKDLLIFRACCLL

Chain of Transitional endoplasmic reticulum ATPase (Homo sapiens, UniProt P55072, C522A) (P55072 2-806 C522A limits assumed): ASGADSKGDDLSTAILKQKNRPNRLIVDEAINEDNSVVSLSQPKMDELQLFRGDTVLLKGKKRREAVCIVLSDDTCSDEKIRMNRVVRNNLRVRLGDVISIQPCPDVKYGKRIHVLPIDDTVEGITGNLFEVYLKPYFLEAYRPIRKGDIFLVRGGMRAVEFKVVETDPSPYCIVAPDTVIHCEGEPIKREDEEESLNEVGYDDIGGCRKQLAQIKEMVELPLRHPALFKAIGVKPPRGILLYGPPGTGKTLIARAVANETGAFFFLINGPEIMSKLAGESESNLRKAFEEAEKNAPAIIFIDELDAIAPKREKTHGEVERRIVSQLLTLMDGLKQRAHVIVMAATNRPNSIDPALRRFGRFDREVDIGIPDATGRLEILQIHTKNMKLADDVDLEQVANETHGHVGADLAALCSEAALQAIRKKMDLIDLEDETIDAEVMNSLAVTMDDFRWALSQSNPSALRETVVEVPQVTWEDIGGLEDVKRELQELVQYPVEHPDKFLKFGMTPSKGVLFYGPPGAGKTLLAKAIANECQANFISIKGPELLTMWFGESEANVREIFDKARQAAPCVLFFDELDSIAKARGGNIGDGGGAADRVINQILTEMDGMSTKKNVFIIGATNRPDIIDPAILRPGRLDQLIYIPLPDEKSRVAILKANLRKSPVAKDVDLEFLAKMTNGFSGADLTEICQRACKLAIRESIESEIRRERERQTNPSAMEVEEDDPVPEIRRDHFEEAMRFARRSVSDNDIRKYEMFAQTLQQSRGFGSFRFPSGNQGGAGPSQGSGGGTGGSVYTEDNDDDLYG

In the case of `N#Cc1c(NC(=O)c2ccccc2Cl)n(Cc2ccccc2)c2nc3ccccc3nc12`, the IC50 [1] is reported as > 50 µM (not active), the EC50 [2] is reported as > 26.5 µM (not active) and the EC50 [3] is reported as 9.38 µM (active). The EC50 [4] was > 79.4 µM (not active) and the IC50 [5] was > 50 µM (not active).

In the case of `COc1ccc(-c2nnc(SCC(=O)c3cc(C)n(Cc4cccs4)c3C)o2)cc1`, the EC50 (Estrogen receptor) is reported as 7.51 µM (active).

`COc1ccc(NC(=O)Nc2cccnc2)cc1` was tested, and the EC50 [6] was 203 µM (active).

With `O=C(COc1ccccc1CNCc1ccccc1)Nc1ccccc1` the IC50 [7] was 5.16 µM (active) and the IC50 [8] was 9.67 µM (active).

`COc1cccc(C(=O)OCC(=O)Nc2sc3c(c2C(N)=O)CCC3)c1O` was tested, and the IC50 [9] was 3.73 µM (active), the AC50 (Caspase-6) was 17.7 µM (active) and the IC50 [10] was 50.2 µM (not active). The IC50 (Bcl-2-like protein 1) was > 109 µM (not active).

For `COc1ccc(CC(=O)Oc2cc(C)nc(O)c2[N+](=O)[O-])cc1`, the IC50 [11] was > 100 µM (not active) and the IC50 [12] was > 100 µM (inactive).

In the case of `CC(C)c1ccc(N2C(=O)CC(Sc3nc[nH]n3)C2=O)cc1` (stereo unspecified), the IC50 [13] is reported as > 50 µM (not active).
